From patent publication US12263155B2, “Combinations of monoamine oxidase inhibitors and serotonin receptor agonists and their therapeutic use” (Remedi, Inc., priority 2022, dated 2025)

Columns and labels:
[1] = Phase 1 single dose escalation pharmacokinetics; conditions: for Clast / Cmax/Dose / Tlast / % AUCextrap / AUCinf/Dose / kel / AUC(0-t): mean; for Cmax / Tmax / concentration at 24 h / AUC(0-t) / AUC(0-inf) / CL/F / Vd/F / half-life: male, human, plasma, po
Description: Methods: The trial was a Phase 1, single center, double-blind, placebo-controlled, sequential group, acute dose escalation study of the safety and pharmacokinetics of seven (7) CX157 dose levels in healthy male volunteers. Each of the seven (7) dose groups consisted of six (6) subjects, with the exception of cohort 2 (CX157 10 mg or placebo) which enrolled only five (5) subjects. Within each dose group, four (4) subjects were randomized to CX157 and two (2) subjects to placebo. Subjects were normal healthy volunteers confined to the study center for approximately 4 days, beginning approximately 16 hours before exposure to study drug and ending approximately 48 hours after exposure to study drug. Safety and tolerability was assessed for each dose group by the Principal Investigator before advancing to the next scheduled dose group. CX157 was administered as a fully solubilized microemulsion in Labrasol™
Plasma samples for the pharmacokinetic analysis of CX157 were obtained at predose (30 minutes prior to dosing), 10, 20, 30, 60 and 90 minutes, 2, 4, 8, 12, 16, 24, 36 and 48 hours after dosing. […] FIG. 11 details the plasma concentrations of CX157 (in ng/mL) of subjects for each of the seven dose groups, wherein the dosage amounts of CX157 administered to the subjects were 5 mg, 10 mg, 15 mg, 20 mg, 40 mg, 80 mg, and 120 mg.
Formulation: Each natural/transparent Licaps® size 0 hard gelatin capsule contains 5 mg or 10 mg CX157 in Labrasol™; each capsule is banded with a green gelatin band that is comprised of gelatin NF and polysorbate-80 NF. CX157 Liquid Filled Capsules are packaged in white, opaque, high density polyethylene (HDPE) bottles with screw-top polypropylene child resistant caps. Each bottle contains 30 capsules per bottle. CX157 Liquid Filled Capsules, 5 mg and 10 mg are stored long-term at controlled room temperature conditions [i15° C. to 30° C. (59° F. to 86° F.)].

[2] = Exemplary administration of CX157, DMT and combinations: subjective effects; format: in vivo; conditions: 175 mg CX157 alone
Description: Administration Example 1: Subjects are administered 175 mg CX157 alone.
Administration Example 2: Subjects are administered 25 mg, 37.5 mg, 50 mg, 75 mg, or 100 mg DMT freebase in a capsule.
Administration Example 3: Subjects are administered 175 mg CX157, and then from between 2-3 hours later, such as at 2 hours 40 minutes later, a dose of 0.03 mg/kg, 0.05 mg/kg, or 0.07 mg/kg DMT freebase in capsule. Alternatively, subjects are administered a capsule containing 2.5 mg, 3.75 mg, 5 mg, 7.5 mg, 10 mg, 12.5 mg, 15 mg, 17.5 mg, or 20 mg DMT freebase.
Administration Example 4: Subjects are administered 175 mg CX157, and then from between 2-3 hours later, such as at 2 hours 15 minutes later, a dose of 0.2 mg/kg, 0.4 mg/kg, or 0.6 mg/kg DMT freebase in capsule. Alternatively, subjects are administered a capsule containing 25 mg, 37.5 mg, 50 mg, 75 mg, 100 mg, 125 mg, 150 mg, 175 mg, or 200 mg DMT freebase. At lower doses of DMT, subjects report effects that are relaxing, comforting, and “warm,” and describe mildly mood-elevating and anxiolytic properties. […]

[3] = healthy males, single oral 5 mg
[4] = healthy males, single oral 10 mg
[5] = healthy males, single oral 15 mg
[6] = healthy males, single oral 20 mg
[7] = healthy males, single oral 40 mg
[8] = healthy males, single oral 80 mg

O=S1(=O)c2ccc(F)cc2Oc2cc(OCC(F)(F)F)ccc21 [CX157, 3-fluoro-7(2,2,2-trifluorethoxy)phenoxathiine-10,10-dioxide]
Clast [1, 3]: 0.15 ng/mL | Cmax/Dose [1, 3]: 87 | Tlast [1, 3]: 17 h | % AUCextrap [1, 4]: 6.2% | AUCinf/Dose [1, 4]: 906 | Clast [1, 4]: 0.2 ng/mL | Cmax/Dose [1, 4]: 182 | Tlast [1, 4]: 40 h | kel [1, 4]: 0.0371 h⁻¹ | % AUCextrap [1, 5]: 5% | AUCinf/Dose [1, 5]: 673 | Clast [1, 5]: 0.38 ng/mL | Cmax/Dose [1, 5]: 212 | Tlast [1, 5]: 45 h | kel [1, 5]: 0.0529 h⁻¹ | % AUCextrap [1, 6]: 3.1% | AUCinf/Dose [1, 6]: 701 | Clast [1, 6]: 0.24 ng/mL | Cmax/Dose [1, 6]: 251 | Tlast [1, 6]: 48 h | kel [1, 6]: 0.0488 h⁻¹ | % AUCextrap [1, 7]: 3.3% | AUCinf/Dose [1, 7]: 619 | Clast [1, 7]: 0.48 ng/mL | Cmax/Dose [1, 7]: 234 | Tlast [1, 7]: 48 h | kel [1, 7]: 0.0459 h⁻¹ | % AUCextrap [1, 8]: 5.2% | AUCinf/Dose [1, 8]: 720 | Clast [1, 8]: 1.9 ng/mL | Cmax/Dose [1, 8]: 232 | Tlast [1, 8]: 48 h | kel [1, 8]: 0.0456 h⁻¹ | Cmax ([1]; 5 mg): 5.8 ng/mL | Tmax ([1]; 5 mg): 0.75 h | concentration at 24 h ([1]; 5 mg): 0.14 ng/mL | AUC(0-t) ([1]; 5 mg, AUC0-24, healthy males, single oral 5 mg): 21.6 ng·h/mL | AUC(0-t) ([1]; 5 mg, AUClast, healthy males, single oral 5 mg): 16.5 ng·h/mL | AUC(0-inf) ([1]; 10 mg): 102 ng·h/mL | CL/F ([1]; 10 mg): 19.7 mL/min/kg | Cmax ([1]; 10 mg): 20.8 ng/mL | Tmax ([1]; 10 mg): 1.17 h | Vd/F ([1]; 10 mg): 33.3 L/kg | concentration at 24 h ([1]; 10 mg): 0.37 ng/mL | half-life ([1]; 10 mg): 18.9 h | AUC(0-t) ([1]; 10 mg, AUC0-24, healthy males, single oral 10 mg): 63 ng·h/mL | AUC(0-t) ([1]; 10 mg, AUC0-48, healthy males, single oral 10 mg): 96 ng·h/mL | AUC(0-t) ([1]; 10 mg, AUClast, healthy males, single oral 10 mg): 69 ng·h/mL | AUC(0-inf) ([1]; 15 mg): 129 ng·h/mL | CL/F ([1]; 15 mg): 30.2 mL/min/kg | Cmax ([1]; 15 mg): 42.2 ng/mL | Tmax ([1]; 15 mg): 0.88 h | Vd/F ([1]; 15 mg): 33.7 L/kg | concentration at 24 h ([1]; 15 mg): 1 ng/mL | half-life ([1]; 15 mg): 13.3 h | AUC(0-t) ([1]; 15 mg, AUC0-24, healthy males, single oral 15 mg): 107 ng·h/mL | AUC(0-t) ([1]; 15 mg, AUC0-48, healthy males, single oral 15 mg): 129 ng·h/mL | AUC(0-t) ([1]; 15 mg, AUClast, healthy males, single oral 15 mg): 122 ng·h/mL | AUC(0-inf) ([1]; 20 mg): 154 ng·h/mL | CL/F ([1]; 20 mg): 26.5 mL/min/kg | Cmax ([1]; 20 mg): 56.1 ng/mL | Tmax ([1]; 20 mg): 0.75 h | Vd/F ([1]; 20 mg): 32.9 L/kg | concentration at 24 h ([1]; 20 mg): 0.74 ng/mL | half-life ([1]; 20 mg): 14.4 h | AUC(0-t) ([1]; 20 mg, AUC0-24, healthy males, single oral 20 mg): 139 ng·h/mL | AUC(0-t) ([1]; 20 mg, AUC0-48, healthy males, single oral 20 mg): 149 ng·h/mL | AUC(0-t) ([1]; 20 mg, AUClast, healthy males, single oral 20 mg): 149 ng·h/mL | AUC(0-inf) ([1]; 40 mg): 321 ng·h/mL | CL/F ([1]; 40 mg): 29.9 mL/min/kg | Cmax ([1]; 40 mg): 123 ng/mL | Tmax ([1]; 40 mg): 0.83 h | Vd/F ([1]; 40 mg): 38.1 L/kg | concentration at 24 h ([1]; 40 mg): 1.4 ng/mL | half-life ([1]; 40 mg): 15.6 h | AUC(0-t) ([1]; 40 mg, AUC0-24, healthy males, single oral 40 mg): 291 ng·h/mL | AUC(0-t) ([1]; 40 mg, AUC0-48, healthy males, single oral 40 mg): 309 ng·h/mL | AUC(0-t) ([1]; 40 mg, AUClast, healthy males, single oral 40 mg): 309 ng·h/mL | AUC(0-inf) ([1]; 80 mg): 772 ng·h/mL | CL/F ([1]; 80 mg): 25.3 mL/min/kg | Cmax ([1]; 80 mg): 245 ng/mL | Tmax ([1]; 80 mg): 1 h | Vd/F ([1]; 80 mg): 33.5 L/kg | concentration at 24 h ([1]; 80 mg): 5.5 ng/mL | half-life ([1]; 80 mg): 15.3 h | AUC(0-t) ([1]; 80 mg, AUC0-24, healthy males, single oral 80 mg): 647 ng·h/mL | AUC(0-t) ([1]; 80 mg, AUC0-48, healthy males, single oral 80 mg): 730 ng·h/mL | AUC(0-t) ([1]; 80 mg, AUClast, healthy males, single oral 80 mg): 730 ng·h/mL | antidepressant activity [2]: no significant antidepressant activity
